Reference: publication PMC6690547, “The triphenylmethane dye brilliant blue G is only moderately effective at inhibiting amyloid formation by human amylin or at disaggregating amylin amyloid fibrils, but interferes with amyloid assays; Implications for inhibitor design” (PLoS ONE, 2019)

Molecular target: T1, human amylin (h-amylin) (Homo sapiens, UniProt P10997)
T1 construct: gene IAPP; synthetic 37 residue polypeptide with a disulfide bridge connecting Cys-2 and Cys-7 and an amidated C-terminus; measured as amyloid fibrils
T1 sequence (P10997 34-70): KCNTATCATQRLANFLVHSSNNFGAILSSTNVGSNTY
Experiment: co-sedimentation of BBG with h-amylin amyloid fibrils (supernatant absorbance at […] nm); supported by TEM/AFM of inhibited and remodeled fibrils and loss of thioflavin-T signal
Format: binding
Description: The result is consistent with binding of BBG to h-amylin amyloid fibers

CCOc1ccc(Nc2ccc(/C(=C3C=C/C(=[N+](/CC)Cc4cccc(S(=O)(=O)[O-])c4)C=C/3C)c3ccc(N(CC)Cc4cccc(S(=O)(=O)O)c4)cc3C)cc2)cc1 [BBG, Sodium;3-[[4-[(E)-[4-(4-ethoxyanilino)phenyl]-[4-[ethyl-[(3-sulfonatophenyl)methyl]azaniumylidene]-2-methylcyclohexa-2,5-dien-1-ylidene]methyl]-N-ethyl-3-methylanilino]methyl]benzenesulfonate]
co-sedimentation of BBG with h-amylin amyloid fibrils (supernatant absorbance at): significant BBG pellets with the fiber. The result is consistent with binding of BBG to h-amylin amyloid fibers
